The values that follow come from patent US9738642B2, “Triazolopyridine ether derivatives and their use in neurological and pyschiatric disorders” (BRISTOL-MYERS SQUIBB COMPANY, priority 2013, dated 2017).

Counter-ions that a name gives are not always drawn.

A word on the EC50: it is the concentration needed to bring the measured effect to its halfway point.

T1 sequence (Q14416 19-872): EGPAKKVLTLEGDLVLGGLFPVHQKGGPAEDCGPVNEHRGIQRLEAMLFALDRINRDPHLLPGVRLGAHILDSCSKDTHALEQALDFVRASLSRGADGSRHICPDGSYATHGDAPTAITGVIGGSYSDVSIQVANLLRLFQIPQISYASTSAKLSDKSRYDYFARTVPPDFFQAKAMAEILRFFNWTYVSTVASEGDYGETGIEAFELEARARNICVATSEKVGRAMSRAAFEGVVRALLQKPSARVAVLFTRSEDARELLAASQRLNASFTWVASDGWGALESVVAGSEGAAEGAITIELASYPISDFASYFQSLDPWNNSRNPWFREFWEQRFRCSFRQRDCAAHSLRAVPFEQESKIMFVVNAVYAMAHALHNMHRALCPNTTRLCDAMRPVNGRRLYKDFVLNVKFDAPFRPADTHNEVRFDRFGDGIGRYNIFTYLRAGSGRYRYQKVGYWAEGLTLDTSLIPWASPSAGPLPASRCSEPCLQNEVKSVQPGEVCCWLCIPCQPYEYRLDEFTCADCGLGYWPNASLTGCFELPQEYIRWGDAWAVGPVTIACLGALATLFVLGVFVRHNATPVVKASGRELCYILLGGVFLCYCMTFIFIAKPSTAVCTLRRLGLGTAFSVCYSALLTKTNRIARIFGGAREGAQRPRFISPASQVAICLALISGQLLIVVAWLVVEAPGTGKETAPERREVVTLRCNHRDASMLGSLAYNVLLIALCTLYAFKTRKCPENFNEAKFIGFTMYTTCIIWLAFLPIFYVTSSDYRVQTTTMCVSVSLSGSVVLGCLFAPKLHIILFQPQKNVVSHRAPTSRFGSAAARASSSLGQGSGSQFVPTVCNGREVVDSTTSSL

This assay addresses T1, human mGluR2 (Homo sapiens, UniProt Q14416).
T1 construct: expressed in transfected cells; host or cells: HEK293 clonal line
Nature of the assay: mGluR2 cAMP assay. Particulars: clonally expressed human mGluR2 in HEK293; 1 μM forskolin, 1 μM LY-341495, 30 min; CISBIO cAMP kit; read-out: EC50 (nM), activity in mGluR2 cAMP assay. It counts as cell-based. The method, then:
On the day of the assay, media was removed, cells washed with PBS, cells harvested and pelleted by centrifugation. Cell pellets were resuspended in stimulation buffer without forskolin and counted. […] A standard curve was created using a top concentration of cAMP of 1 μM in the stimulation buffer, 1:3 dilutions over 14 points in the absence of cells. […] In house software converted the fluorescence value ratios to units of cAMP concentration, which is then used to calculate % inhibition for each test compound. MGluR2 cAMP Assay Materials and Methods. […] Buffer without forskolin was used as a negative control. Solutions of D2 and cryptate detection reagents from the CISBIO dynamic cAMP kit (62AM4PEJ) were diluted 1:40 in lysis buffer. Lysis buffer consisted of 50 mM Phosphate Buffer pH 7.0, 800 mM Potassium Fluoride, 0.2% BSA, and 1.0% Triton. Assay reaction was terminated by addition of detection reagents in lysis buffer. One hour later, plates were read on a PE Viewlux. Data was extracted, and concentration response curves generated by fitting the data to a standard 4 parameter logistic equation from which EC50 values were determined.
A general note: cAMP levels reflect the balance of adenylyl cyclase and phosphodiesterase activity.
As for `C[C@@H](COc1ccn2c(CC3CC3)nnc2c1C(F)(F)F)c1c(F)cccc1Cl` (single isomer, unassigned) [Example 9], the EC50 turned out to be 0.8 nM. To `C[C@H](COc1ccn2c(CC3CC3)nnc2c1C(F)(F)F)c1c(F)cccc1Cl` (single isomer, unassigned) [Example 10] belongs 0.8 nM; to `C[C@@](C#N)(COc1ccn2c(CC3CC3)nnc2c1C(F)(F)F)c1ccc(F)cc1` (single isomer, unassigned) [Example 14], 230 nM.

As for `C[C@](C#N)(COc1ccn2c(CC3CC3)nnc2c1C(F)(F)F)c1ccc(F)cc1` (single isomer, unassigned) [Example 15], the EC50 worked out at 80 nM.

As to `CO[C@@](C)(COc1ccn2c(CC3CC3)nnc2c1C(F)(F)F)c1ccc(F)cc1` (single isomer, unassigned) [Example 24], the 50% effective concentration (EC50) was 36 nM.

With `CO[C@](C)(COc1ccn2c(CC3CC3)nnc2c1C(F)(F)F)c1ccc(F)cc1` (single isomer, unassigned) [Example 25], the EC50 turned out to be 25 nM. To `COc1cccc(F)c1[C@H]1C[C@@H]1COc1ccn2c(CC3CC3)nnc2c1C(F)(F)F` (single isomer, unassigned) [Example 35] belongs 0.2 nM; to `COc1cccc(F)c1[C@@H]1C[C@H]1COc1ccn2c(CC3CC3)nnc2c1C(F)(F)F` (single isomer, unassigned) [Example 36], 0.2 nM. To `COc1ccccc1[C@H]1C[C@@H]1COc1ccn2c(CC3CC3)nnc2c1C(F)(F)F` (single isomer, unassigned) [Example 39] belongs 0.6 nM; to `COc1ccccc1[C@@H]1C[C@H]1COc1ccn2c(CC3CC3)nnc2c1C(F)(F)F` (single isomer, unassigned) [Example 40], 1.4 nM.

Regarding `FC(F)(F)Oc1ccccc1[C@H]1C[C@@H]1COc1ccn2c(CC3CC3)nnc2c1C(F)(F)F` (single isomer, unassigned) [Example 41], the EC50 is 2.2 nM. As to `FC(F)(F)Oc1ccccc1[C@@H]1C[C@H]1COc1ccn2c(CC3CC3)nnc2c1C(F)(F)F` (single isomer, unassigned) [Example 42], the EC50 is 1.9 nM. Turning to `Fc1ccc(C2CC2COc2ccn3c(CC4CC4)nnc3c2C(F)(F)F)cc1` (single isomer, unassigned) [Example 78], the EC50 stood at 2.6 nM. With `Fc1ccc([C@@H]2C[C@H]2COc2ccn3c(CC4CC4)nnc3c2C(F)(F)F)cc1` (single isomer, unassigned) [Example 79], the concentration for a half-maximal effect (EC50) was 1.1 nM. For the compound `CO[C@]1(c2ccc(F)cc2)CC[C@H](Oc2ccn3c(C4CC4(F)F)nnc3c2C(F)(F)F)CC1` (single isomer, unassigned) [Example 87, TFA salt], the concentration giving a half-maximal response (EC50) is 61 nM. To `CO[C@]1(c2ccc(F)cc2)CC[C@H](Oc2ccn3c(C4CC4(F)F)nnc3c2C(F)(F)F)CC1` (single isomer, unassigned) [Example 88, TFA salt] belongs 3.1 nM; to `FC(F)(F)c1c(OCC2(c3ccccc3)CCCCC2)ccn2c(CC3CC3)nnc12` [Example 1, 3-(Cyclopropylmethyl)-7-((1-phenylcyclohexyl)methoxy)-8-(trifluoromethyl)-[1,2,4]triazolo[4,3-a]pyridine], 1.8 nM.

`CC(C)(COc1ccn2c(CC3CC3)nnc2c1C(F)(F)F)c1ccc(Cl)cc1` [Example 2, 7-(2-(4-Chlorophenyl)-2-methylpropoxy)-3-(cyclopropylmethyl)-8-(trifluoromethyl)-[1,2,4]triazolo[4,3-a]pyridine]: the EC50 amounted to 5.5 nM.

For the compound `N#Cc1c(OC[C@H]2C[C@@H]2c2ccc(F)cc2)ccn2c(CC3CC3)nnc12` [Example 3, 3-(Cyclopropylmethyl)-7-(((1S,2S)-2-(4-fluorophenyl)cyclopropyl)methoxy)-[1,2,4]triazolo[4,3-a]pyridine-8-carbonitrile], the concentration for a half-maximal effect (EC50) turned out to be 11 nM. To `CC(C)(COc1ccn2c(CC3CC3)nnc2c1C(F)(F)F)c1ccc(F)cc1` [Example 6, 3-(Cyclopropylmethyl)-7-(2-(4-fluorophenyl)-2-methylpropoxy)-8-(trifluoromethyl)-[1,2,4]triazolo[4,3-a]pyridine] belongs 11 nM. `CC(C)(COc1ccn2c(CC(F)(F)F)nnc2c1C(F)(F)F)c1ccc(Cl)cc1` [Example 7, 7-(2-(4-Chlorophenyl)-2-methylpropoxy)-3-(2,2,2-trifluoroethyl)-8-(trifluoromethyl)-[1,2,4]triazolo[4,3-a]pyridine]: the concentration for a half-maximal effect (EC50) worked out at 13 nM.

For `CC(C)(COc1ccn2c(CC3CC3)nnc2c1C(F)(F)F)Oc1ccc(F)cc1` [Example 8, 3-(Cyclopropylmethyl)-7-(2-(4-fluorophenoxy)-2-methylpropoxy)-8-(trifluoromethyl)-[1,2,4]triazolo[4,3-a]pyridine], the EC50 came out at 11 nM. To `CC(C)(COc1ccn2c(CC(F)(F)F)nnc2c1C(F)(F)F)Oc1ccc(F)cc1` [Example 11, 7-(2-(4-Fluorophenoxy)-2-methylpropoxy)-3-(2,2,2-trifluoroethyl)-8-(trifluoromethyl)-[1,2,4]triazolo[4,3-a]pyridine] belongs 18 nM. To `CC(C)(COc1ccn2c(CC3CC3)nnc2c1C(F)(F)F)Oc1ccc(Cl)cc1` [Example 13, 7-(2-(4-Chlorophenoxy)-2-methylpropoxy)-3-(cyclopropylmethyl)-8-(trifluoromethyl)-[1,2,4]triazolo[4,3-a]pyridine] belongs 13 nM. To `CC(C)(COc1ccn2c(CC3CC3)nnc2c1C(F)(F)F)Oc1ccc(F)cc1F` [Example 16, 3-(Cyclopropylmethyl)-7-(2-(2,4-difluorophenoxy)-2-methylpropoxy)-8-(trifluoromethyl)-[1,2,4]triazolo[4,3-a]pyridine] belongs 15 nM; to `N#C[C@]1(c2ccc(F)cc2)CC[C@H](Oc2ccn3c(CC4CC4)nnc3c2C(F)(F)F)CC1` [Example 17, (1s,4s)-4-(3-(Cyclopropylmethyl)-8-(trifluoromethyl)-[1,2,4]triazolo[4,3-a]pyridin-7-yloxy)-1-(4-fluorophenyl)cyclohexanecarbonitrile], 1.4 nM; to `CCOCc1nnc2c(C(F)(F)F)c(OCC(C)(C)Oc3ccc(Cl)cc3)ccn12` [Example 18, 7-(2-(4-Chlorophenoxy)-2-methylpropoxy)-3-(ethoxymethyl)-8-(trifluoromethyl)-[1,2,4]triazolo[4,3-a]pyridine], 5.9 nM. For the compound `CO[C@]1(c2ccc(F)cc2)CC[C@H](Oc2ccn3c(CC4CC4)nnc3c2C(F)(F)F)CC1` [Example 19, 3-(Cyclopropylmethyl)-7-((1s,4s)-4-(4-fluorophenyl)-4-methoxycyclohexyloxy)-8-(trifluoromethyl)-[1,2,4]triazolo[4,3-a]pyridine], the EC50 came out at 0.3 nM. Consider `FC(F)(F)c1c(O[C@H]2CC[C@H](c3ccccc3)CC2)ccn2c(CC3CC3)nnc12` [Example 20, 3-(Cyclopropylmethyl)-7-((1r,4r)-4-phenylcyclohexyloxy)-8-(trifluoromethyl)-[1,2,4]triazolo[4,3-a]pyridine], for which the EC50 is 0.4 nM. To `CC(C)(COc1ccn2c(COCC(F)(F)F)nnc2c1C(F)(F)F)Oc1ccc(Cl)cc1` [Example 22, 7-(2-(4-Chlorophenoxy)-2-methylpropoxy)-3-((2,2,2-trifluoroethoxy)methyl)-8-(trifluoromethyl)-[1,2,4]triazolo[4,3-a]pyridine, TFA salt] belongs 4.9 nM; to `COCc1nnc2c(C(F)(F)F)c(OCC(C)(C)Oc3ccc(Cl)cc3)ccn12` [Example 23, 7-(2-(4-Chlorophenoxy)-2-methylpropoxy)-3-(methoxymethyl)-8-(trifluoromethyl)-[1,2,4]triazolo[4,3-a]pyridine, TFA salt], 120 nM. To `O[C@]1(c2ccc(F)c(F)c2)CC[C@H](Oc2ccn3c(CC4CC4)nnc3c2C(F)(F)F)CC1` [Example 26, (1s,4s)-4-(3-(Cyclopropylmethyl)-8-(trifluoromethyl)-[1,2,4]triazolo[4,3-a]pyridin-7-yloxy)-1-(3,4-difluorophenyl)cyclohexanol, TFA salt] belongs 0.8 nM; to `FC(F)(F)COCc1nnc2c(C(F)(F)F)c(O[C@H]3CC[C@H](c4ccccc4)CC3)ccn12` [Example 27, 7-((1r,4r)-4-Phenylcyclohexyloxy)-3-((2,2,2-trifluoroethoxy)methyl)-8-(trifluoromethyl)-[1,2,4]triazolo[4,3-a]pyridine], 0.6 nM. As for `CO[C@]1(c2ccc(F)c(F)c2)CC[C@H](Oc2ccn3c(CC4CC4)nnc3c2C(F)(F)F)CC1` [Example 28, 3-(Cyclopropylmethyl)-7-((1s,4s)-4-(3,4-difluorophenyl)-4-methoxycyclohexyloxy)-8-(trifluoromethyl)-[1,2,4]triazolo[4,3-a]pyridine], the concentration giving a half-maximal response (EC50) amounted to 0.7 nM. To `FC(F)(F)c1c(OCC2(c3ccc(Cl)cc3)CC2)ccn2c(CC3CC3)nnc12` [Example 29, 7-((1-(4-Chlorophenyl)cyclopropyl)methoxy)-3-(cyclopropylmethyl)-8-(trifluoromethyl)-[1,2,4]triazolo[4,3-a]pyridine] belongs 13 nM. To `Fc1ccc(C2(COc3ccn4c(CC5CC5)nnc4c3C(F)(F)F)CC2)cc1` [Example 30, 3-(Cyclopropylmethyl)-7-((1-(4-fluorophenyl)cyclopropyl)methoxy)-8-(trifluoromethyl)-[1,2,4]triazolo[4,3-a]pyridine] belongs 16 nM.
